Source: US20240374726A1, “BAG6 SPECIFIC CHIMERIC ANTIGEN RECEPTOR, NUCLEIC ACID, BAG6 SPECIFIC CHIMERIC ANTIGEN RECEPTOR EXPRESSION PLASMID, BAG6 SPECIFIC CHIMERIC ANTIGEN RECEPTOR EXPRESSING CELL, USE THEREOF, AND PHARMACEUTICAL COMPOSITION FOR TREATING CANCER” (China Medical University Hospital, priority 2023, published 2024)
Values joined by “and” are separate entries in the source; they are usually repeats but may differ in a detail not shown here. Equal values may be shown once.

Experiments:
Format in all cases: cell-based
[1] = tested on: B7-H6 on the plasma membrane of the human breast cancer cell line MDA-MB-231; assay: expression level of B7-H6, flow cytometry; details: doxorubicin 200 nM, 48 hours, versus untreated control
Method: (§1) To explore whether treatment with the chemotherapy drug affects the expression of BAG6, HLA-G and B7-H6 on the cell membrane of tumor cells, the tumor cells used were human breast cancer cell line MDA-MB-231, human malignant brain tumor cell line DBTRG-05MG (hereinafter referred to as DBTRG), human pancreatic cancer cell line AsPC-1, and human ovarian cancer cell line SKOV3. The tumor cells used were all purchased from the American Type Culture Collection (ATCC). The human breast cancer cell line MDA-MB-231 is a triple-negative breast cancer cell line, that is, the hormone receptor (ER, PR) and HER-2 receptor thereof are negative, and the human breast cancer cell line MDA-MB-231 was cultured in RPMI culture medium including 10% fetal bovine serum (FBS). The human malignant brain tumor cell line DBTRG was cultured in DMEM culture medium including 10% FBS. The human pancreatic cancer cell line AsPC-1 was cultured in RPMI culture medium including 10% FBS. The human ovarian cancer cell line SKOV3 was cultured in McCoy's 5A culture medium including 10% FBS.

[2] = tested on: BAG6 on the plasma membrane of the human breast cancer cell line MDA-MB-231; assay: expression level of BAG6, immunofluorescence staining and flow cytometry; details: doxorubicin 200 nM, 48 hours, versus untreated control
Method: as §1

[3] = tested on: HLA-G on the plasma membrane of the human breast cancer cell line MDA-MB-231; assay: expression level of HLA-G, flow cytometry; details: doxorubicin 200 nM, 48 hours, versus untreated control
Method: as §1

[4] = tested on: B7-H6 on the plasma membrane of the human ovarian cancer cell line SKOV3; assay: expression level of B7-H6, flow cytometry; details: carboplatin 20 μM, 48 hours, versus untreated control
Method: as §1

[5] = tested on: BAG6 on the plasma membrane of the human ovarian cancer cell line SKOV3; assay: expression level of BAG6, immunofluorescence staining and flow cytometry; details: carboplatin 20 μM, 48 hours, versus untreated control
Method: as §1

[6] = tested on: HLA-G on the plasma membrane of the human ovarian cancer cell line SKOV3; assay: expression level of HLA-G, flow cytometry; details: carboplatin 20 μM, 48 hours, versus untreated control
Method: as §1

[7] = tested on: human malignant brain tumor cell line DBTRG; assay: tumor cell death, Annexin V-FITC/PI flow cytometry (cytotoxicity); details: group 1: chemotherapy drug alone, temozolomide 80 μg/mL, three independent trials
Method: The cells were subsequently incubated for 48 hours. Each type of the tumor cells was divided into six groups. In a control, the tumor cells were untreated. In a group 1, the tumor cells were treated with the chemotherapy drug. In a group 2, the tumor cells were treated with the parental primary T lymphocyte. In a group 3, the tumor cells are treated with the parental primary T lymphocyte and the chemotherapy drug. In a group 4, the tumor cells were treated with Example 1. In a group 5, the tumor cells were treated with Example 1 and the chemotherapy drug. […] In the group 4 and the group 5, the number of Example 1 treated was 1×10^5 cells. […] The treated cells of each group were stained with Annexin V-FITC and propidium iodide (PI), and the apoptosis and the death of the tumor cells were detected by the flow cytometry. The sum of the percentage of cells stained with Annexin V-FITC and/or PI were calculated to obtain the cytotoxicity. The results of the cytotoxicity were counted after three independent trials in each group.
The cells were subsequently incubated for 48 hours. […] The treated cells of each group were stained with Annexin V-FITC and PI, and the apoptosis and the death of the tumor cells were detected by the flow cytometry. The sum of the percentage of cells stained with Annexin V-FITC and/or PI were calculated to obtain the cytotoxicity. […]

## COc1cccc2c1C(=O)c1c(O)c3c(c(O)c1C2=O)C[C@@](O)(C(=O)CO)C[C@@H]3O[C@H]1C[C@H](N)[C@H](O)[C@H](C)O1 [doxorubicin]
[1]
  expression of B7-H6 on the plasma membrane: increase the expression of B7-H6
[2]
  expression of BAG6 on the plasma membrane: increase the expression of BAG6
[3]
  expression of HLA-G on the plasma membrane: increase the expression of HLA-G

## N.N.O=C([O-])C1(C(=O)[O-])CCC1.[Pt+2] [carboplatin]
[4]
  expression of B7-H6 on the plasma membrane: increase the expression of B7-H6
[5]
  expression of BAG6 on the plasma membrane: increase the expression of BAG6
[6]
  expression of HLA-G on the plasma membrane: increase the expression of HLA-G

## Cn1nnc2c(C(N)=O)ncn2c1=O [temozolomide]
[7]
  death rate: 8.4033% and 14.9267% and 5.5450% and 11.7933% and 13.9750%
